Measurements reported in publication PMC2362731, “Phase I study of Carzelesin (U-80,244) given (4-weekly) by intravenous bolus schedule” (British Journal of Cancer, 1999).

System: patients with advanced solid tumours
Assay: Phase I toxicity of Carzelesin, 4-weekly 10 min IV infusion (NCI-CTC grading)
Type: in vivo, human
Settings: for No. of courses with delayed recovery (no. of pts): delayed more than 3 days
Procedure: Carzelesin is a cyclopropylpyrroloindole analogue which acts as a DNA-sequence-specific alkylating agent. In this phase I study, Carzelesin was given as a 4-weekly 10 min IV infusion to 51 patients with advanced solid tumours. Patients received a median of two courses (range 1–5) at one of nine dose levels: 24, 48, 96, 130, 150, 170, 210, 250 and 300 μg m^−2. According to NCI-CTC criteria, non-haematological toxicities (grade 1/2) included fever, nausea and vomiting, mucositis and anorexia, none of which was clearly dose related. The dose-limiting toxicity was haematological and consisted mainly of neutropenia and to a lesser extent thrombocytopenia. From the dose level 150 μg m^−2, the haematological toxicity (particularly thrombocytopenia) was delayed in onset, prolonged and cumulative in some patients. In several courses, double WBC nadirs occurred. The maximum tolerated dose for a single course was 300 μg m^−2. From the dose level 170 μg m^−2, the intended dose intensity could not be delivered to most patients receiving > 2 courses owing to cumulative haematological toxicity. The dose level with the best dose intensity for multiple courses was 150 μg m^−2. The pharmacokinetics of Carzelesin and its metabolites (U-76,073; U-76,074) have been established in 31 patients during the first course of treatment using a HPLC method. […] The concentration of U-76,074 (active metabolite) extended above the lower limit of quantitation (1 ng ml^−1) for short periods of time and only at the higher dose levels. There was no relationship between neutropenia and the AUC of the prodrug Carzelesin, but the presence of detectable plasma levels of the active metabolite U-76,074 was usually associated with a substantial decrease in ANC values. © 1999 Cancer Research Campaign
Carzelesin (U-80,244, Figure 1A) is a cyclopropylpyrroloindole (CPI) prodrug analogue of CC-1065. […] CPI drugs are a class of compounds with unique DNA interactive properties. These agents fit into the minor groove region of DNA, and the CPI function in the molecule mediates a covalent binding to the N3 position of adenine in A-T rich regions, thus forming DNA adducts in a sequence selective fashion (Hurley et al, 1984; Reynolds et al, 1985). Three new CPIs have now been developed. […] Bizelesin differs from the classical CPI drugs in that it contains two chloromethyl functions, which are both converted (via intramolecular rearrangements) to the CPI alkyl- ating species that interact with DNA. Consequently, this agent is capable of forming DNA interstrand cross-links (Lee et al, 1991). […] Therefore, efforts were directed to modu- late the alkylation rate by the preparation of CPI prodrugs that would require chemical or enzymatic conversion. The activation of Carzelesin is a two-step reaction with hydrolysis of the phenyl- urethane substituent to form the intermediate compound U-76,073, followed by ring closure to form the active product U-76,074 (Figure 1B). […] This higher efficacy may be related to the pharmacologic features of the compound. […] Phase I study of Carzelesin (U-80,244) given (4-weekly) by intravenous bolus schedule A Awada1, CJA Punt2, MJ Piccart1, O Van Tellingen3, L Van Manen2, J Kerger1, Y Groot4, J Wanders4, J Verweij5 and DJTh Wagener2 1Institut Jules Bordet, Bd de Waterloo 125, 1000 Brussels, Belgium; 2University Hospital, Geert Grooteplein 8, Box 9101, 6500 HB Nijmegen, The Netherlands; 3The Netherlands Cancer Institute (Antoni van Leeuwenhoek Huis), Plesmanlaan 121, 1066 CX Amsterdam, The Netherlands; 4European Organization for Research and Treatment of Cancer - New Drug Development Office, PO Box 7057, Amsterdam, The Netherlands; 5Rotterdam Cancer Institute, Groene Hilledijk 301, 3075 EA Rotterdam, The Netherlands; on behalf of the EORTC Early Clinical Studies Group and EORTC NDDO Summary Carzelesin is a cyclopropylpyrroloindole analogue which acts as a DNA-sequence-specific alkylating agent. […]

SMILES: CCN(CC)c1ccc2cc(C(=O)Nc3ccc4[nH]c(C(=O)N5C[C@@H](CCl)c6c5cc(OC(=O)Nc5ccccc5)c5[nH]cc(C)c65)cc4c3)oc2c1 [Carzelesin]
- dose level with the best dose intensity for multiple courses (4-weekly 10 min IV infusion): 150 μg m^−2
- maximum tolerated dose for a single course (4-weekly 10 min IV infusion): 300 μg m^−2
- No. of reduced courses due to haematological toxicity (Table 2, dose level 24 μg m-2): 0
- No. of courses with delayed recovery (no. of pts) (Table 2, dose level 24 μg m-2): 0
- No. of reduced courses due to haematological toxicity (Table 2, dose level 48 μg m-2): 0
- No. of courses with delayed recovery (no. of pts) (Table 2, dose level 48 μg m-2): 0
- No. of reduced courses due to haematological toxicity (Table 2, dose level 96 μg m-2): 0
- No. of courses with delayed recovery (no. of pts) (Table 2, dose level 96 μg m-2): 0
- No. of reduced courses due to haematological toxicity (Table 2, dose level 130 μg m-2): 0
- No. of courses with delayed recovery (no. of pts) (Table 2, dose level 130 μg m-2): 0
- No. of courses with delayed recovery (no. of pts) (Table 2, dose level 150 μg m-2): 3 (1)
- No. of reduced courses due to haematological toxicity (Table 2, dose level 150 μg m-2, reduced to 130, 1 patient): 3
- No. of reduced courses due to haematological toxicity (Table 2, dose level 170 μg m-2): 0
- No. of courses with delayed recovery (no. of pts) (Table 2, dose level 170 μg m-2): 4 (4)
- No. of courses with delayed recovery (no. of pts) (Table 2, dose level 210 μg m-2): 5 (5)
- No. of reduced courses due to haematological toxicity (Table 2, dose level 210 μg m-2, reduced to 96, 105, 150, 4 patients): 6
- No. of courses with delayed recovery (no. of pts) (Table 2, dose level 250 μg m-2): 3 (3)
- No. of reduced courses due to haematological toxicity (Table 2, dose level 250 μg m-2, reduced to 130, 170, 3 patients): 6
- No. of courses with delayed recovery (no. of pts) (Table 2, dose level 300 μg m-2): 2 (2)
- No. of reduced courses due to haematological toxicity (Table 2, dose level 300 μg m-2, reduced to 150, 2 patients): 2
- Neutropenia grade 3/4, No. of courses (Table 3, dose level 24 μg m-2): 0
- Neutropenia grade 3/4, No. of patients (worst grade per patient) (Table 3, dose level 24 μg m-2): 0
- Neutropenia grade 3/4, patients following the first course (Table 3, dose level 24 μg m-2): 0
- No. of toxic patients following the first course (Table 3, dose level 24 μg m-2): 0
- Thrombocytopenia grade 3/4, No. of courses (Table 3, dose level 24 μg m-2): 0
- Thrombocytopenia grade 3/4, No. of patients (worst grade per patient) (Table 3, dose level 24 μg m-2): 0
- Thrombocytopenia grade 3/4, patients following the first course (Table 3, dose level 24 μg m-2): 0
- No. of toxic patients/courses (grade 3/4 neutropenia and/or thrombocytopenia) (Table 3, dose level 24 μg m-2, 4/6 evaluable patients/courses): 0
- Neutropenia grade 3/4, No. of courses (Table 3, dose level 48 μg m-2): 0
- Neutropenia grade 3/4, No. of patients (worst grade per patient) (Table 3, dose level 48 μg m-2): 0
- Neutropenia grade 3/4, patients following the first course (Table 3, dose level 48 μg m-2): 0
- No. of toxic patients following the first course (Table 3, dose level 48 μg m-2): 0
- Thrombocytopenia grade 3/4, No. of courses (Table 3, dose level 48 μg m-2): 0
- Thrombocytopenia grade 3/4, No. of patients (worst grade per patient) (Table 3, dose level 48 μg m-2): 0
- Thrombocytopenia grade 3/4, patients following the first course (Table 3, dose level 48 μg m-2): 0
- No. of toxic patients/courses (grade 3/4 neutropenia and/or thrombocytopenia) (Table 3, dose level 48 μg m-2, 3/7 evaluable patients/courses): 0
- Neutropenia grade 3/4, No. of courses (Table 3, dose level 96 μg m-2): 0/1
- Neutropenia grade 3/4, No. of patients (worst grade per patient) (Table 3, dose level 96 μg m-2): 0/1
- Neutropenia grade 3/4, patients following the first course (Table 3, dose level 96 μg m-2): 0/1
- No. of toxic patients following the first course (Table 3, dose level 96 μg m-2): 2
- Thrombocytopenia grade 3/4, No. of courses (Table 3, dose level 96 μg m-2): 1/0
- Thrombocytopenia grade 3/4, No. of patients (worst grade per patient) (Table 3, dose level 96 μg m-2): 1/0
- Thrombocytopenia grade 3/4, patients following the first course (Table 3, dose level 96 μg m-2): 1/0
- No. of toxic patients/courses (grade 3/4 neutropenia and/or thrombocytopenia) (Table 3, dose level 96 μg m-2, 5/8 evaluable patients/courses): 2/2
- Neutropenia grade 3/4, No. of courses (Table 3, dose level 130 μg m-2): 2/0
- Neutropenia grade 3/4, No. of patients (worst grade per patient) (Table 3, dose level 130 μg m-2): 2/0
- Neutropenia grade 3/4, patients following the first course (Table 3, dose level 130 μg m-2): 0
- No. of toxic patients following the first course (Table 3, dose level 130 μg m-2): 0
- Thrombocytopenia grade 3/4, No. of courses (Table 3, dose level 130 μg m-2): 2/1
- Thrombocytopenia grade 3/4, No. of patients (worst grade per patient) (Table 3, dose level 130 μg m-2): 2/1
- Thrombocytopenia grade 3/4, patients following the first course (Table 3, dose level 130 μg m-2): 0
- No. of toxic patients/courses (grade 3/4 neutropenia and/or thrombocytopenia) (Table 3, dose level 130 μg m-2, 5/9 evaluable patients/courses): 3/3
- Neutropenia grade 3/4, No. of courses (Table 3, dose level 150 μg m-2): 2/2
- Neutropenia grade 3/4, No. of patients (worst grade per patient) (Table 3, dose level 150 μg m-2): 1/2
- Neutropenia grade 3/4, patients following the first course (Table 3, dose level 150 μg m-2): 0/1
- No. of toxic patients following the first course (Table 3, dose level 150 μg m-2): 2
- Thrombocytopenia grade 3/4, No. of courses (Table 3, dose level 150 μg m-2): 1/1
- Thrombocytopenia grade 3/4, No. of patients (worst grade per patient) (Table 3, dose level 150 μg m-2): 1/1
- Thrombocytopenia grade 3/4, patients following the first course (Table 3, dose level 150 μg m-2): 1/1
- No. of toxic patients/courses (grade 3/4 neutropenia and/or thrombocytopenia) (Table 3, dose level 150 μg m-2, 6/14 evaluable patients/courses): 4/5
- Neutropenia grade 3/4, No. of courses (Table 3, dose level 170 μg m-2): 1/3
- Neutropenia grade 3/4, No. of patients (worst grade per patient) (Table 3, dose level 170 μg m-2): 1/3
- Neutropenia grade 3/4, patients following the first course (Table 3, dose level 170 μg m-2): 0/2
- No. of toxic patients following the first course (Table 3, dose level 170 μg m-2): 4
- Thrombocytopenia grade 3/4, No. of courses (Table 3, dose level 170 μg m-2): 5/2
- Thrombocytopenia grade 3/4, No. of patients (worst grade per patient) (Table 3, dose level 170 μg m-2): 3/2
- Thrombocytopenia grade 3/4, patients following the first course (Table 3, dose level 170 μg m-2): 3/0
- No. of toxic patients/courses (grade 3/4 neutropenia and/or thrombocytopenia) (Table 3, dose level 170 μg m-2, 9/16 evaluable patients/courses): 6/8
- Neutropenia grade 3/4, No. of courses (Table 3, dose level 210 μg m-2): 3/3
- Neutropenia grade 3/4, No. of patients (worst grade per patient) (Table 3, dose level 210 μg m-2): 2/3
- Neutropenia grade 3/4, patients following the first course (Table 3, dose level 210 μg m-2): 3/1
- No. of toxic patients following the first course (Table 3, dose level 210 μg m-2): 4
- Thrombocytopenia grade 3/4, No. of courses (Table 3, dose level 210 μg m-2): 0/2
- No. of toxic patients/courses (grade 3/4 neutropenia and/or thrombocytopenia) (Table 3, dose level 210 μg m-2, 7/10 evaluable patients/courses): 5/6
- Thrombocytopenia grade 3/4, No. of patients (worst grade per patient) (Table 3, dose level 210 μg m-2, one patient had pre-existing grade 1 thrombocytopenia): 0/2
